The source of these data is patent US20080009545A1, “Anticancer agents” (The Ohio State University Research Foundation, priority 2006, published 2008).

Assay [1] concerns the target Bcl-xL (Homo sapiens, UniProt Q07817). As to the kind of experiment: Competitive fluorescence polarization assay, Bak BH3 peptide binding to Bcl-xL. The procedure:
Competitive fluorescence polarization assay—The binding affinity of the test agent to Bcl-XL was analyzed by a competitive fluorescence polarization assay in which the ability of the agent to displace the binding of a Bak BH3-domain peptide to either Bcl-2 or Bcl-XL was determined. Flu-BakBH3, a Bak-BH3 peptide labeled at the NH2 terminus with fluorescein, was purchased from Genemed Synthesis (San Francisco, Calif.). COOH-terminal-truncated, His-tagged Bcl-XL was purchased from EMD Biosciences (San Diego, Calif.) and soluble glutathione S-transferase-fused Bcl-2 was obtained from Santa Cruz Biotechnology. The binding analysis was carried out in a dual-path length quartz cell with readings taken at […] at room temperature using a luminescence spectrometer according to an established procedure (19).
Determination of IC50 values—Data from cell viability and fluorescence polarization assays were analyzed by using the CalcuSyn software (Biosoft, Ferguson, Mo.) to determine IC50 values, in which the calculation was based on the medium-effect equation [i.e., log(fa/fu)=m log(D)−m log(Dm), where fa and fu denote fraction affected and unaffected, respectively; m represents the Hill-type coefficient signifying the sigmoidicity of the dose-effect curve; and D and Dm are the dose used and IC50, respectively.
In general terms: Fluorescence polarisation rises when a labelled molecule tumbles more slowly, as on binding a larger partner.

Assay [2] deals with T1, Bcl-2/Bak interactions (Homo sapiens, UniProt P10415).
T1 construct: endogenous in cells; host or cells: PC-3 cells
T1 sequence (P10415 whole entry): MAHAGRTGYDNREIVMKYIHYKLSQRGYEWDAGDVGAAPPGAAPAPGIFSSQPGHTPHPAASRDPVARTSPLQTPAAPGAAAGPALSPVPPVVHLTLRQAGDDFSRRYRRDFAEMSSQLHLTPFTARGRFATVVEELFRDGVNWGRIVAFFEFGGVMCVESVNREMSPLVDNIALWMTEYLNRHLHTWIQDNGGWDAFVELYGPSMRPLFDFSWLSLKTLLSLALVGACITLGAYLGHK
As to the kind of experiment: Co-immunoprecipitation of Bcl-2/Bak in PC-3 cells. Type of assay: cell-based. The procedure:
Immunoblotting—Cells were seeded in 10% FBS-containing RPMI-1640 medium for 24 h and treated with various agents as aforementioned. After individual treatments for 24 h, the adherent cells in T-25 or T-75 flasks were scraped, combined with the medium, and centrifuged at 2200 rpm for 10 min. The […] were recovered, placed on ice, and triturated with 20 to 50 μL of a chilled lysis buffer (M-PER Mammalian Protein Extraction Reagent; Pierce, Rockford, Ill.), to which was added 1% protease inhibitor cocktail (set III; EMD Biosciences, Inc., San Diego, Calif.). After a 30-min incubation on ice, the mixture was centrifuged at 16,100×g for 3 min. […]
The pellet was resuspended in ice-cold 0.5 mL of radioimmunoprecipitation assay buffer (50 mM Tris-HCl, pH 7.4, 1% Nonidet P-40, 0.25% sodium deoxycholate, 150 mM NaCl, 1 mM EDTA, and 1% protease inhibitor cocktail) and gently mixed on an orbital shaker at 4° C. for 15 min, followed by centrifugation at 14,000×g for 15 min to yield cell lysates. […] Equal amounts of proteins from these lysates, as determined by the Bradford assay, were mixed with anti-Bcl-2 or anti Bcl-XL antibodies in an orbital shaker at 23° C. for 2 h, followed by 100 μL of protein A-agarose bead slurry at 4° C. for 12 h. […]

Assay [3] has as its system PC-3 cells. The experiment in a line: Apoptosis detection in PC-3 cells (cell death ELISA, cytochrome c release, PARP cleavage). Type of assay: cell-based, human. The conditions noted are these: 24 h, serum-free medium. The procedure:
Apoptosis detection by ELISA—Induction of apoptosis was assessed with a Cell Death Detection ELISA kit (Roche Diagnostics) by following the manufacturer's instruction. This test is based on the quantitative determination of cytoplasmic histone-associated DNA fragments in the form of mononucleosomes and oligonucleosomes after induced apoptotic death. In brief, 5×10^6 cells were cultured in a T-25 flask in 10% FBS-containing medium for 24 h, and were treated with the test agents at various concentrations in serum-free medium for 24 hours. Both floating and adherent cells were collected; cell lysates equivalent to 5×10^5 cells were used in the ELISA.
Western blot analysis of cytochrome c release into the cytoplasm—Cytosolic-specific, mitochondria-free lysates were prepared according to an established procedure (18). In brief, after individual treatments for 24 h, both the incubation medium and adherent cells in T-75 flasks were collected and centrifuged at 600×g for 5 min. […] Bands were transferred to nitrocellulose membranes and analyzed by immunoblotting with anti-cytochrome c antibodies as described below. […]
In general terms: In an ELISA, binding on a coated surface is turned into a signal by an enzyme label.

Bcl-xL, sequence (Q07817 1-212 limits assumed): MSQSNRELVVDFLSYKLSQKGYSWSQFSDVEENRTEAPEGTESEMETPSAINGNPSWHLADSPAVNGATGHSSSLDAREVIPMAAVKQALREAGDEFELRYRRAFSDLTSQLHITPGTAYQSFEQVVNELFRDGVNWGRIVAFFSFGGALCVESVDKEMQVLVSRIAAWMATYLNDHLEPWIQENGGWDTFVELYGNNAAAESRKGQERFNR

`Cc1c(C)c2c(c(C)c1OC(=O)CCC(=O)O)CCC(C)(CCCC(C)CCCC(C)C)O2` (stereo not drawn) [TS-1, succinic acid mono-[2-(4,8-dimethyl-nonyl)-2,5,7,8-tetramethyl-chroman-6-yl]ester]: the “difference in IC50 between TS-1 and α-tocopheryl succinate in blocking Bak peptide binding to Bcl-xL” value in assay [1] was 3 fold. Moreover, the “intracellular binding of Bak to Bcl-2” value in assay [2] (10 μM) is recorded as “abolished”. In addition, the apoptotic death result in assay [3] was “evidenced by DNA fragmentation, cytochrome c release, and PARP cleavage”.

The IC50 is the concentration at which inhibition is half-maximal. Regarding `Cc1c(C)c2c(c(C)c1OC(=O)CCC(=O)O)CC[C@@](C)(CCC[C@H](C)CCC[C@H](C)CCCC(C)C)O2` [α-tocopheryl succinate, reference compound], the IC50 in assay [1] (fluorescence polarization, Flu-BakBH3, read-out: IC50, disruption of BH3 domain-mediated interactions (Bak BH3 peptide) with Bcl-xL) stood at 26 ± 2 µM. The “level of Bak associated with Bcl-2” value in assay [2] (40 μM, 12 h, vs DMSO control) was “significantly reduced”. Besides, the apoptotic death entry in assay [3] is “evidenced by DNA fragmentation, cytochrome c release, and PARP cleavage”.
